Experimental data taken from patent US7214699B2, “Indazole derivatives as CRF antagonists” (Roche Palo Alto LLC, priority 2002, dated 2007).
Counter-ions that a name gives are not always drawn.

Legend:
hCRF1 = target: T1, hCRF1 (Homo sapiens, UniProt P34998); assay: Intracellular cAMP stimulation assay (CRF1 functional assay); type: cell-based; conditions: inhibition of hCRF (30 nM)-stimulated cAMP accumulation in human Y-79 retinoblastoma cells, read-out: hCRF1 pIC50 (converted)
T1 construct: endogenous in cells; host or cells: Human Y-79 retinoblastoma cells
T1 sequence (P34998 24-415): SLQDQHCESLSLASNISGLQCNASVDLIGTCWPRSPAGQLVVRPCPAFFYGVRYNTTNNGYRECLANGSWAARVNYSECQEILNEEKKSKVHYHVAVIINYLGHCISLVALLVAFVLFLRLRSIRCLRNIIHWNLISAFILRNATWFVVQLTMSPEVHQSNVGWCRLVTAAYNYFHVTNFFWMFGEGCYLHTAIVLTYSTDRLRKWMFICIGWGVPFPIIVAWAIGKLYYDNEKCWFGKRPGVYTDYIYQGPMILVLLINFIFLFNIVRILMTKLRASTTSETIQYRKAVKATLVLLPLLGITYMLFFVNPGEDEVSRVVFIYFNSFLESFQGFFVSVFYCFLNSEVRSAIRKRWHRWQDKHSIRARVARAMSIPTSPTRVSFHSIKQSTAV
Procedure: Intracellular cAMP Stimulation Assay
Human Y-79 retinoblastoma cells are grown in RPMI 1640 medium with 15% FBS. Measures of cAMP accumulation are performed by using NEN Adenylyl Cyclase FlashPlate kit (SMP004). The cells are separated from culture medium, washed twice with PBS (150×g, 8 min), resuspended (2E+6 cells/ml) in Stimulation Buffer (provided in the kit), and then added to 96-well FlashPlates, (50,000 cells per well). Various concentrations of test compounds are incubated with the cells for 20 min prior to the addition of hCRF (30 nM). The total assay volume is 100 μl. The assay is terminated after 20 min after addition of the hCRF by addition of Detection Buffer and [^125I]cAMP. After 2 hr at room temperature the mixtures are aspirated and the bound radioactivity is measured with a Packard TopCount. The potency (IC50 values) of test compounds in inhibiting the hCRF-stimulated accumulation of cAMP is determined by nonlinear regression analyses with interactive curve-fitting procedures.
The compounds of the present invention were active in receptor binding and functional assays.

| Compound | melting point | IC50 (hCRF1) |
| --- | --- | --- |
| CCC=C(CCC)c1c2cccc(-c3c(C)cc(C)cc3C)c2nn1C.Cl [Ib, 2-Methyl-3-(1-propyl-but-1-enyl)-7-(2,4,6-trimethyl-phenyl)-2H-indazole hydrochloride] | 132 to 135 °C | 50.1 nM |
| CCCN(CC1CC1)C(=O)c1c2cccc(-c3c(C)cc(C)cc3C)c2nn1C [Im, 2-Methyl-7-(2,4,6-trimethyl-phenyl)-2H-indazole-3-carboxylic acid cyclopropylmethyl-propyl-amide] | 112.5 to 113.8 °C |  |
| CCCN(CCC)c1c2cccc(-c3c(C)cc(C)cc3C)c2nn1C [Ic, [2-Methyl-7-(2,4,6-trimethyl-phenyl)-2H-indazol-3-yl]-dipropyl-amine] |  | 79.4 nM |
| CCCN(Cc1cccs1)c1c2cccc(-c3c(C)cc(C)cc3C)c2nn1C [Io, [2-Methyl-7-(2,4,6-trimethyl-phenyl)-2H-indazol-3-yl]-propyl-thiophen-2-ylmethyl-amine trifluoro-acetic acid salt] |  | 79.4 nM |
| COCCN(CCOC)c1c2cccc(-c3c(C)cc(C)cc3C)c2nn1C (as salt: hydrochloride) [If, Bis-(2-methoxy-ethyl)-[2-methyl-7-(2,4,6-trimethyl-phenyl)-2H-indazol-3-yl]-amine] | 140 to 142 °C |  |
| CCN(CCOC)c1c2cccc(-c3c(C)cc(C)cc3C)c2nn1C.Cl | 142 to 146 °C |  |
| CCCN(CC1CC1)c1c2cccc(-c3c(C)cc(C)cc3C)c2nn1C [Ip, Cyclopropylmethyl-[2-methyl-7-(2,4,6-trimethyl-phenyl)-2H-indazol-3-yl]-propyl-amine trifluoroacetic acid salt] |  | 50.1 nM |
| CCCN(CC1CC1)c1c2cccc(-c3ccc(Cl)cc3Cl)c2nn1C.Cl | 137 to 139 °C |  |
| CCCN(Cc1c2cccc(-c3c(C)cc(C)cc3C)c2nn1C)CC1CC1.Cl | 125.8 to 133.5 °C |  |
| CCCN(CCOC)c1c2cccc(-c3c(C)cc(C)cc3C)c2nn1C (as salt: hydrochloride) [Ie, (2-Methoxy-ethyl)-[2-methyl-7-(2,4,6-trimethyl-phenyl)-2H-indazol-3-yl]-propyl-amine] | 86 to 121 °C |  |
| CC/C=C(\CCC)c1c2cccc(-c3ccc(OC)nc3C)c2nn1C.Cl | 84.7 to 89.4 °C |  |
| CCCN(CCC)c1c2cccc(-c3ccc(OC)cc3OC)c2nn1C.Cl | 62 to 64.3 °C |  |
| Cn1nc2c(-c3ccc(Cl)cc3Cl)cccc2c1CN1CCOCC1 [Iag, 7-(2,4-Dichloro-phenyl)-2-methyl-3-morpholin-4-ylmethyl-2H-indazole] | 152.3 to 154.8 °C |  |
| CCC=C(CCC)c1c2cccc(-c3ccc(Cl)cc3Cl)c2nn1C (as salt: hydrochloride) [Ia, 7-(2,4-Dichloro-phenyl)-2-methyl-3-(1-propyl-but-1-enyl)-2H-indazole hydrochloride] | 147 to 152 °C |  |
| CCCN(CCC)c1c2cccc(-c3ccc(OC)cc3C)c2nn1C.Cl | 60 to 70 °C |  |
| Cn1nc2c(-c3ccc(Cl)cc3Cl)cccc2c1C(=O)N1CCOCC1 [Iae, [7-(2,4-Dichloro-phenyl)-2-methyl-2H-indazol-3-yl]-morpholin-4-yl-methanone] | 197 to 200.8 °C |  |
| CCCN(CCC)c1c2cccc(-c3ccc(Cl)cc3Cl)c2nn1C (as salt: hydrochloride) [[7-(2,4-Dichloro-phenyl)-2-methyl-2H-indazol-3-yl]-dipropyl-amine] | 153 to 157 °C |  |
| CCC=C(CCC)c1c2cccc(-c3ccc(Cl)cc3Cl)c2nn1C [Ia, 7-(2,4-Dichloro-phenyl)-2-methyl-3-(1-propyl-but-1-enyl)-2H-indazole hydrochloride] |  | 63.1 nM |
| CCCN(CCC)c1c2cccc(-c3c(C)cc(C)cc3C)c2nn1C (as salt: hydrochloride) [Ic, [2-Methyl-7-(2,4,6-trimethyl-phenyl)-2H-indazol-3-yl]-dipropyl-amine] | 154 to 158 °C |  |
